Laboratory results taken from patent publication US9012655B2, “Antimicrobial/adjuvant compounds and methods” (Denouamed, Inc., priority 2011, dated 2015).
In brackets after ≈: the same amount, converted by molar mass.

Columns and labels:
Test in all cases: MIC panel of challenge pathogens (CLSI)
Assay type in all cases: cell-based
Bacillus cereus NCTC6349 = settings: Bacillus cereus NCTC6349
Summary of the method: (§1)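 Broth microdilution per CLSI guidelines. Final inoculum 2-8×10^5 CFU/ml, compounds serially two-fold diluted from 128 mg/L top concentration. Incubated in the dark at 30-37° C for 24-48 h, aerobic or anaerobic as appropriate. MIC read visually as 100% inhibition endpoint; MIC50 and MIC80 also reported.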

[1] = test system: Enterococcus faecalis ATCC29212; settings: Enterococcus faecalis ATCC29212
Summary of the method: as §1

[2] = test system: Enterococcus faecalis ATCC51299; settings: Enterococcus faecalis ATCC51299
Summary of the method: as §1

[3] = test system: Enterococcus faecium ATCC700221; settings: Enterococcus faecium ATCC700221
Summary of the method: as §1

[4] = test system: Staphylococcus aureus ATCC43300; settings: Staphylococcus aureus ATCC43300
Summary of the method: as §1

[5] = test system: Staphylococcus aureus AUR131 007035; settings: AUR131007035, Staphylococcus aureus AUR131 007035
Summary of the method: as §1

[6] = test system: Staphylococcus aureus AUR58 7005; settings: AUR587005, Staphylococcus aureus AUR58 7005
Summary of the method: as §1

[7] = test system: Staphylococcus aureus AUR59 7005; settings: AUR597005, Staphylococcus aureus AUR59 7005
Summary of the method: as §1

[8] = test system: Staphylococcus aureus AUR60 7005; settings: AUR607005, Staphylococcus aureus AUR60 7005
Summary of the method: as §1

[9] = test system: Staphylococcus aureus EUP MRSA002; settings: EUPMRSA002, Staphylococcus aureus EUP MRSA002
Summary of the method: as §1

[10] = test system: Staphylococcus aureus EUP MRSA004; settings: EUPMRSA004, Staphylococcus aureus EUP MRSA004
Summary of the method: as §1

[11] = test system: Staphylococcus aureus EUP SAU040; settings: EUPSAU040, Staphylococcus aureus EUP SAU040
Summary of the method: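 Broth microdilution per CLSI guidelines; final inoculum 2-8×10^5 CFU/ml in the appropriate broth. Compounds serially diluted two-fold from a top assay concentration of 128 mg/L. Plates incubated in the dark at 30-37° C for 24-48 hours, read visually; MIC taken as 100% inhibition endpoint.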

[12] = test system: Staphylococcus aureus NRS1 (ATCC700699); settings: Staphylococcus aureus NRS1 (ATCC700699)
Summary of the method: as §1

[13] = test system: Staphylococcus aureus NRS2 (ATCC700698); settings: Staphylococcus aureus NRS2 (ATCC700698)
Summary of the method: as §1

[14] = test system: Staphylococcus aureus NRS382; settings: Staphylococcus aureus NRS382
Summary of the method: as §1

[15] = test system: Staphylococcus aureus NRS383; settings: Staphylococcus aureus NRS383
Summary of the method: as §1

[16] = test system: Staphylococcus aureus NRS384; settings: Staphylococcus aureus NRS384
Summary of the method: as §1

[17] = test system: Staphylococcus epidermidis NRS122; settings: Staphylococcus epidermidis NRS122
Summary of the method: as §1

[18] = test system: Staphylococcus epidermidis NRS7; settings: Staphylococcus epidermidis NRS7
Summary of the method: as §1

MIC (Bacillus cereus NCTC6349; read-out: 100% inhibition): ≤ 0.25 µg/mL
MIC50 (Bacillus cereus NCTC6349; read-out: MIC50 (50%)): ≤ 0.25 µg/mL
MIC80 (Bacillus cereus NCTC6349; read-out: MIC80 (80%)): ≤ 0.25 µg/mL
MIC ([1]; read-out: 100% inhibition): 0.5 µg/mL (≈ 1.15 µM)
MIC50 ([1]; read-out: MIC50 (50%)): 0.5 µg/mL (≈ 1.15 µM)
MIC80 ([1]; read-out: MIC80 (80%)): 0.5 µg/mL (≈ 1.15 µM)
MIC ([2]; read-out: 100% inhibition): 0.5 µg/mL (≈ 1.15 µM)
MIC50 ([2]; read-out: MIC50 (50%)): 0.5 µg/mL (≈ 1.15 µM)
MIC80 ([2]; read-out: MIC80 (80%)): 0.5 µg/mL (≈ 1.15 µM)
MIC ([3]; read-out: 100% inhibition): 0.5 µg/mL (≈ 1.15 µM)
MIC50 ([3]; read-out: MIC50 (50%)): 0.25 µg/mL (≈ 0.577 µM)
MIC80 ([3]; read-out: MIC80 (80%)): 0.25 µg/mL (≈ 0.577 µM)
MIC ([4]; read-out: 100% inhibition): ≤ 0.25 µg/mL
MIC50 ([4]; read-out: MIC50 (50%)): ≤ 0.25 µg/mL
MIC80 ([4]; read-out: MIC80 (80%)): ≤ 0.25 µg/mL
MIC ([5]; read-out: 100% inhibition): ≤ 0.25 µg/mL
MIC50 ([5]; read-out: MIC50 (50%)): ≤ 0.25 µg/mL
MIC80 ([5]; read-out: MIC80 (80%)): ≤ 0.25 µg/mL
MIC ([6]; read-out: 100% inhibition): 1 µg/mL (≈ 2.31 µM)
MIC50 ([6]; read-out: MIC50 (50%)): 1 µg/mL (≈ 2.31 µM)
MIC80 ([6]; read-out: MIC80 (80%)): 1 µg/mL (≈ 2.31 µM)
MIC ([7]; read-out: 100% inhibition): 0.5 µg/mL (≈ 1.15 µM)
MIC50 ([7]; read-out: MIC50 (50%)): 0.25 µg/mL (≈ 0.577 µM)
MIC80 ([7]; read-out: MIC80 (80%)): 0.25 µg/mL (≈ 0.577 µM)
MIC ([8]; read-out: 100% inhibition): 0.5 µg/mL (≈ 1.15 µM)
MIC50 ([8]; read-out: MIC50 (50%)): 0.5 µg/mL (≈ 1.15 µM)
MIC80 ([8]; read-out: MIC80 (80%)): 0.5 µg/mL (≈ 1.15 µM)
MIC ([9]; read-out: 100% inhibition): ≤ 0.25 µg/mL
MIC50 ([9]; read-out: MIC50 (50%)): ≤ 0.25 µg/mL
MIC80 ([9]; read-out: MIC80 (80%)): ≤ 0.25 µg/mL
MIC ([10]; read-out: 100% inhibition): ≤ 0.25 µg/mL
MIC50 ([10]; read-out: MIC50 (50%)): ≤ 0.25 µg/mL
MIC80 ([10]; read-out: MIC80 (80%)): ≤ 0.25 µg/mL
MIC ([11]; read-out: 100% inhibition): 0.5 µg/mL (≈ 1.15 µM)
MIC50 ([11]; read-out: MIC50 (50%)): 0.5 µg/mL (≈ 1.15 µM)
MIC80 ([11]; read-out: MIC80 (80%)): 0.5 µg/mL (≈ 1.15 µM)
MIC ([12]; read-out: 100% inhibition): ≤ 0.25 µg/mL
MIC50 ([12]; read-out: MIC50 (50%)): ≤ 0.25 µg/mL
MIC80 ([12]; read-out: MIC80 (80%)): ≤ 0.25 µg/mL
MIC ([13]; read-out: 100% inhibition): 0.5 µg/mL (≈ 1.15 µM)
MIC50 ([13]; read-out: MIC50 (50%)): 0.25 µg/mL (≈ 0.577 µM)
MIC80 ([13]; read-out: MIC80 (80%)): 0.5 µg/mL (≈ 1.15 µM)
MIC ([14]; read-out: 100% inhibition): 0.5 µg/mL (≈ 1.15 µM)
MIC50 ([14]; read-out: MIC50 (50%)): 0.5 µg/mL (≈ 1.15 µM)
MIC80 ([14]; read-out: MIC80 (80%)): 0.5 µg/mL (≈ 1.15 µM)
MIC ([15]; read-out: 100% inhibition): ≤ 0.25 µg/mL
MIC50 ([15]; read-out: MIC50 (50%)): ≤ 0.25 µg/mL
MIC80 ([15]; read-out: MIC80 (80%)): ≤ 0.25 µg/mL
MIC ([16]; read-out: 100% inhibition): 0.5 µg/mL (≈ 1.15 µM)
MIC50 ([16]; read-out: MIC50 (50%)): 0.5 µg/mL (≈ 1.15 µM)
MIC80 ([16]; read-out: MIC80 (80%)): 0.5 µg/mL (≈ 1.15 µM)
MIC ([17]; read-out: 100% inhibition): 2 µg/mL (≈ 4.61 µM)
MIC50 ([17]; read-out: MIC50 (50%)): 1 µg/mL (≈ 2.31 µM)
MIC80 ([17]; read-out: MIC80 (80%)): 2 µg/mL (≈ 4.61 µM)
MIC ([18]; read-out: 100% inhibition): 1 µg/mL (≈ 2.31 µM)
MIC50 ([18]; read-out: MIC50 (50%)): 1 µg/mL (≈ 2.31 µM)
MIC80 ([18]; read-out: MIC80 (80%)): 1 µg/mL (≈ 2.31 µM)
SMILES: CC(C)c1cc(Cl)ccc1-c1cc(C(=O)O)sc1-c1ccc(Cl)cc1C(C)C [DNM0566, 4,5-Bis(4-chloro-2-isopropylphenyl)thiophene-2-carboxylic acid]
